Source: paper PMC7463582, “Modulation and Protection Effects of Antioxidant Compounds against Oxidant Induced Developmental Toxicity in Zebrafish” (Antioxidants, 2020)
Where a name gives a salt, the structure may show the parent alone.

Legend:
zebrafish embryos [1] = conditions: for Change of dysmorphogenic effects of LPS / Shift of the LPS lethality concentration–effect curve / Shift of the TCHQ concentration–response curves for lethality and dysmorphogenesis / Shift of the tBOOH concentration–response curves (lethality and dysmorphogenesis) / Mortality of embryos exposed to tBOOH after pre-exposure: pre-exposure to the modulator at MTC; for Change of dysmorphogenic effects of LPS / Shift of the LPS lethality concentration–effect curve: then LPS, versus LPS alone; for Shift of the TCHQ concentration–response curves for lethality and dysmorphogenesis: then TCHQ, versus TCHQ alone; for Shift of the tBOOH concentration–response curves (lethality and dysmorphogenesis) / Mortality of embryos exposed to tBOOH after pre-exposure: then tBOOH; for Shift of the tBOOH concentration–response curves (lethality and dysmorphogenesis): versus tBOOH alone
zebrafish embryos [2] = test: Zebrafish embryo test: lethality and dysmorphogenesis after exposure to a single oxidative stress-related compound; assay type: in vivo, Zebrafish (Danio rerio); conditions: for EC50: read-out: EC50 (effective concentration 50 for dysmorphogenesis)
Method: (§1) To characterize the effects on embryonic development produced by compounds related to OS, ZF embryos were exposed to OS inducers, modulators of antioxidant status and antioxidants. For compounds which were dissolved in DMSO and diluted with Danieau’s buffer, a vehicle negative control group with 0.05% DMSO in 0.3× Danieau’s buffer was assayed.
(§2) From 26 to 50 hpf, embryos were incubated with 0.3× Danieau’s buffer with or without DMSO, depending on the dissolution of the compound of study.
(§3) Exposure to OS inducers was conducted from 26 to 50 hpf to select the working concentrations of these compounds for the experimental design. In this case, from 2 to 26 hpf, embryos were incubated with Danieau’s buffer with or without DMSO, depending on the dissolution of the compound of study.
(§4) Exposure of ZF embryos was semi-static and was carried out in 6-well plates (Greiner Bio-one, Frickenhausen, Germany). Ten embryos per group were selected and randomly distributed into the wells and filled with 5mL of the corresponding solution of the compound. Embryos were incubated at 26 ± 1 °C with a dark–light cycle of 10–14 h. Renewal of the medium and of the solutions was made every 24 h. Evaluation of the embryos was performed at different time points. Lethality was determined at 8, 26, and 50 hpf based on egg coagulation, the absence of tail detachment, or somite formation and the absence of heartbeat. Dysmorphogenic effects were evaluated at 50 hpf by the total morphological score system described by. For each compound of study, at least three independent experiments were performed using embryos from different spawning events (n = 3).
(§5) The percentage of lethality and of dysmorphogenesis was calculated per compound at every tested concentration, and the concentration–response curves for these effects were plotted.

[3] = as above; assay type: in vivo, Zebrafish (Danio rerio); conditions: zebrafish, in vivo, read-out: LC50 (lethal concentration 50)
Method: as §1, §2, §3, §4, §5

zebrafish embryos [4] = test: animal or person; conditions: Danio rerio, read-out: EC50 (95% CI) for dysmorphogenesis of tBOOH
zebrafish embryos [5] = test: animal or person; conditions: Danio rerio
in vivo = conditions: zebrafish
[6] = exposure window 2–26 hpf, not calculated, reason in footnote
[7] = Danio rerio, exposure window 2–26 hpf, evaluated at 50 hpf

Compound	Change of dysmorphogenic effects of LPS (zebrafish embryos [1])	Shift of the LPS lethality concentration–effect curve (zebrafish embryos [1])	Shift of the TCHQ concentration–response curves for lethality and dysmorphogenesis (zebrafish embryos [1])	Shift of the tBOOH concentration–response curves (lethality and dysmorphogenesis) (zebrafish embryos [1])	MTC (maximum tolerable concentration) (zebrafish embryos [2]; exposure window 2–26 hpf) [µM]	LC50 [3, 6] [µM]	EC50 (zebrafish embryos [2]; [7]) [µM]	further results
CCCCS(=N)(=O)CCC(N)C(=O)O (racemic) [DL-buthionine sulfoximine (BSO), DL-buthionine sulfoximine]	no significant effects were observed	shifted the lethality concentration–effect curves significantly	statistically significant drift in the concentration–effect curves for lethality and dysmorphogenesis to lower concentrations of TCHQ	a significant shift in the concentration–response curves to lower concentrations of tBOOH	50	–	–	EC50 (zebrafish embryos [2]; exposure window 2–26 hpf, evaluated at 50 hpf): 2720 µM
CCOC(=O)/C=C\C(=O)OCC [Diethyl maleate (DEM), diethyl maleate]	no significant effects were observed	shifted the lethality concentration–effect curves significantly	statistically significant drift in the concentration–effect curves for lethality and dysmorphogenesis to lower concentrations of TCHQ	a significant shift in the concentration–response curves to lower concentrations of tBOOH	0.5	< 100	1.5	–
CC(=O)N[C@@H](CS)C(=O)O [N-acetyl-L-cysteine (NAC), N-acetyl-L-cysteine]	no significant effects were observed	–	–	–	250	–	921	Mortality of embryos exposed to tBOOH after pre-exposure (zebrafish embryos [1]): no significant effects in mortality of the embryos were observed; LC50 (95% CI) of LPS after pre-exposure to the modulator (zebrafish embryos [1]; zebrafish, in vivo, pH 7.4): 51.6 µg/mL * (48.8–54.5); LC50 (95% CI) of TCHQ after pre-exposure to the modulator (zebrafish embryos [1]; zebrafish, in vivo, pH 7.4): 19.6 µM * (16.6–23.3); LC50 ([3]; exposure window 2–26 hpf): 1870 µM
COC(=O)[C@@H](N)CCCNC(N)=N[N+](=O)[O-] [Nω-nitro L-arginine methyl ester hydrochloride]	significant reduction in dysmorphogenic effects	shifted the lethality concentration–effect curves significantly	significantly shifted to higher concentrations of TCHQ	significantly drifted the tBOOH concentration–response curves to higher concentrations	5	> 100	44.4	Mortality of embryos exposed to tBOOH after pre-exposure (zebrafish embryos [1]): no significant effects in mortality of the embryos were observed
O=c1c(O)c(-c2ccc(O)c(O)c2)oc2cc(O)cc(O)c12 [Quercetin, quercetin hydrate]	–	–	–	–	20	> 30	–	–
CC(C)(C)OO [Tert-butyl hydroperoxide (tBOOH), Tert-butyl hydroperoxide]	–	–	–	–	–	–	–	EC50 (zebrafish embryos [4]): 1640 µM; EC50 (zebrafish embryos [5]; read-out: EC50 (95% CI) for dysmorphogenesis of tBOOH): 1640 µM; EC50 (zebrafish embryos [2]; Danio rerio, exposure window 26–50 hpf, evaluated at 50 hpf): 1600 µM
Oc1c(Cl)c(Cl)c(O)c(Cl)c1Cl [Tetrachlorohydroquinone (TCHQ), Tetrachlorohydroquinone]	–	–	–	–	–	–	–	LC50 (in vivo): 15.2 µM; EC50 (zebrafish embryos [5]; read-out: EC50 (95% CI) for dysmorphogenesis of TCHQ): 8.84 µM; LC50 ([3]; exposure window 26–50 hpf): 16 µM; EC50 (zebrafish embryos [2]; Danio rerio): 3.9 µM; Compound-specific dysmorphogenic effect (zebrafish embryos [2]; exposure 26–50 hpf): produced an effect in the pigmentation of the embryos
(±)-α-tocopherol [Vit. E]	–	–	–	–	100	–	–	LC50 (zebrafish embryos [2]; exposure window 2–26 hpf, not calculated, reason in footnote, read-out: LC50 (lethal concentration 50)): > 30 µM
